{"source": "patent US20060100567A1", "about": "“Microsurgical tissue treatment system” (Rocky Mountain Biosystems, Inc, priority 2004, published 2006)", "assay": "Delivery of a topical anesthetic through micro-ablated stratum corneum", "assay_type": "in vivo", "settings": "solution of 4% lidocaine applied for five minutes to approx. 1 cm^2 area ablated by piezoelectric actuator with 60 micron aluminum oxide particles, 10-15 pulses, 20 kHz", "description": "A piezoelectric actuator was fitted with 60 micron aluminum oxide particles fixed to its surface so as to provide an approximate 1 cm^2 treatment area. Ten to fifteen pulses of less than one second duration were applied with force of less than 1 pound to the area and frequency of 20 kHz. […] A solution of 4% lidocaine was applied to the area and incubated for five minutes. The excess lidocaine was wiped off, and a series of probes was made in and around the area of treatment using a 20 gauge needle or by pinching.", "data": [{"smiles": "CCN(CC)CC(=O)Nc1c(C)cccc1C", "note": "[lidocaine]", "values": [{"measurement": "anesthesia (sensation on probing with a 20 gauge needle or pinching)", "value": "significant anesthesia was obtained"}]}]}
